From patent publication US12428403B2, “N-(heterocyclyl and heterocyclylalkyl)-3-benzylpyridin-2-amine derivatives as SSTR4 agonists” (Takeda Pharmaceutical Company Limited, priority 2020, dated 2025)

How the values were obtained:
[1] = molecular target: SSTR1 (Homo sapiens, UniProt P30872); experiment: biochemical;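 note: competitive binding to membranes of CHO-K1 cells overexpressing SSTR1, incubated 60 min at room temperature, radioactivity read by scintillation counting after filtration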
Protocol: SSTR1 I-125 Somatostatin Competition Binding Assay for Selectivity Versus SSTR1
Membranes from CHO-K1 cells overexpressing SSTR1 are purchased from Perkin Elmer (catalog number ES-520-M400UA). Test compounds are suspended in DMSO and then diluted in assay buffer (25 mM HEPES pH 7.4, 10 mM MgCl2, 1 mM CaCl2, 0.5% BSA) plus 0.4 nM I-125 labeled somatostatin (Perkin Elmer catalog number NEX389). […] Then 10 μg of SSTR1 membranes in 50 μL assay buffer are added per well. The plate is incubated for 60 minutes at room temperature. […] The contents of the assay plate are transferred to filters with a TomTech harvester and washed 5 times with 20 mM HEPES, 100 mM NaCl. […] The scintillator sheets are melted to the filters using a heat block. The filters are then read in a MicroBeta scintillation counter. Binding Ki curves are generated using Activity Base for Screening Data Management and the results are reported as pIC50.

[2] = molecular target: T1, SSTR4 (Homo sapiens, UniProt P31391); experiment: cell-based
T1 sequence (P31391 whole entry): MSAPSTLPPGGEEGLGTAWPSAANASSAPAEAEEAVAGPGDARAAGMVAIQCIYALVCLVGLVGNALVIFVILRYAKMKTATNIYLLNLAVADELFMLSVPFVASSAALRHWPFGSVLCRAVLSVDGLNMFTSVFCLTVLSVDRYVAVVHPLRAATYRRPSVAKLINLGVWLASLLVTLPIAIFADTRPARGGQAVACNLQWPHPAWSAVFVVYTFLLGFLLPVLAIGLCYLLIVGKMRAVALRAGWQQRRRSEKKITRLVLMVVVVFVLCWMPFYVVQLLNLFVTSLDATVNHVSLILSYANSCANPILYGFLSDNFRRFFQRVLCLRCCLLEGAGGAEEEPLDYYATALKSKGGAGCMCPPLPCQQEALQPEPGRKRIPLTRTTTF
Protocol: This cell-based assay measures the ability of compounds to inhibit forskolin stimulated cAMP in CHO-K1 cells overexpressing SSTR4. CHO-K1 cells overexpressing SSTR4 (CHO-SSTR4) are purchased from DiscoveRx (product code 95-0059C2). The CHO-SSTR4 cells are maintained in F12K media with 10% Fetal Bovine Serum (Hyclone), 1% Pen/Strep (Life Technologies), and 800 μg/mL G418 (Life Technologies). To perform the assay, 3000 cells are plated per well in white 384-well plate (Corning 3570) in 50 complete media and the cells are allowed to attach for 16 hours in a 37° C., 5% CO2 incubator. The next day, the culture media is removed from the cells and the cells are washed (added then removed) with Krebs Ringer Buffer (ZenBio, KRB-1000 mL). Test compounds are suspended in DMSO and diluted in stimulation buffer: Krebs Ringer Buffer plus 0.5% BSA (Roche), 300 μM IBMX (Sigma), and 350 nM forskolin (Sigma). The cells are incubated in 10 μL compound/stimulation buffer for 30 minutes at room temperature. Cellular cAMP levels are detected with a HTRF LANCE Ultra cAMP kit (Perkin Elmer, catalog number TRF0264).
The assay is performed in accordance with the manufacturer's instructions. Five μL of diluted Eu-W8044 labeled streptavidin (dilution: 1:50 in cAMP Detection Buffer) is added to each well. Then 5 μL of diluted biotin cAMP (dilution: 1:150 in cAMP Detection Buffer) is added to each well. The plates are covered and allowed to incubate for 60 minutes at room temperature on a shaker. HTRF (665 nm/615 nm) is read on a Perkin Elmer ENVISION plate reader. The pEC50 values are generated using Activity Base for Screening Data Management.

[3] = molecular target: T1, SSTR4; experiment: SSTR4 I-125 somatostatin competition binding assay (CHO-K1 membranes); design: host or cells: CHO-K1; conditions: competition with I-125 labeled somatostatin, membranes from CHO-K1 overexpressing SSTR4; read-out: SSTR4 Binding pIC50 (converted)
From the text: SSTR4I-125 Somatostatin Competition Binding Assay
Membranes from CHO-K1 cells overexpressing SSTR4 are purchased from Perkin Elmer (catalog number ES-524-M400UA). […] The scintillator sheets are melted to filters using a heat block.
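Throughout, for EC50: CHO-K1 cells overexpressing SSTR4, reduction of forskolin-driven cAMP after 30 min compound exposure at room temperature, cAMP read by HTRF LANCE Ultra kit.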

Chain of SSTR1 (P30872 whole entry): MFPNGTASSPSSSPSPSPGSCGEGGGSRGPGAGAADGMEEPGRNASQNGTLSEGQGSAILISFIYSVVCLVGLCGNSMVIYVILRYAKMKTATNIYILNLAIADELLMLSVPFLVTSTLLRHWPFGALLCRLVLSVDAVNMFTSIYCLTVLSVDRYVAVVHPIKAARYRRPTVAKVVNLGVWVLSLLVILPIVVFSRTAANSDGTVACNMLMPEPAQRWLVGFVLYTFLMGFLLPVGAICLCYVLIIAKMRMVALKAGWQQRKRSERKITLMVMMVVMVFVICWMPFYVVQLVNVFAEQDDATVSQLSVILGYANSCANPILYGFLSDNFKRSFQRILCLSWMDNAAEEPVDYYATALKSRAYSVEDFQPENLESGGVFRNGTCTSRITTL

For `Cc1nc(N[C@@H]2CCN(C)C[C@H]2C)c(Cc2ccc(F)cc2)nc1C(N)=O` (racemic) [Example 45, 5-((trans-1,3-dimethylpiperidin-4-yl)amino)-6-(4-fluorobenzyl)-3-methylpyrazine-2-carboxamide], the IC50 [1] was 18200 nM, the EC50 [2] was 38 nM and the IC50 [3] was 129 nM.
`CNC(=O)c1nc(Cc2ccc(F)cc2)c(N[C@@H]2CCN(C)C[C@H]2C)nc1C` (racemic) [Example 46, 5-((trans-1,3-dimethylpiperidin-4-yl)amino)-6-(4-fluorobenzyl)-N,3-dimethylpyrazine-2-carboxamide] was tested, and the IC50 [1] was 14500 nM, the EC50 [2] was 72.4 nM and the IC50 [3] was 490 nM.
`COc1cccc(Cc2nc3cccc(C)c3nc2NCCN2CCC2)c1` (single isomer, unassigned) [Example 4, N-(2-(azetidin-1-yl)ethyl)-3-(3-methoxybenzyl)-8-methylquinoxalin-2-amine] was tested, and the IC50 [1] was 1550 nM, the EC50 [2] was 63.1 nM and the IC50 [3] was 38 nM.
`C[C@H](c1ccc(F)cc1)c1nc(C(N)=O)cnc1NCCN1CCCC1` (single isomer, unassigned) [Example 21] was tested, and the IC50 [1] was 2820 nM, the EC50 [2] was 5.13 nM and the IC50 [3] was 24.5 nM.
`CNC(=O)c1cnc(NCCN2CCCC2)c([C@@H](C)c2ccc(F)cc2)n1` (single isomer, unassigned) [Example 23] was tested, and the IC50 [1] was 13200 nM, the EC50 [2] was 25.1 nM and the IC50 [3] was 63.1 nM.
`CNC(=O)c1cnc(NCCN2CCCC2)c([C@H](C)c2ccc(F)cc2)n1` (single isomer, unassigned) [Example 24] gave an IC50 [1] of 5130 nM, an EC50 [2] of 18.6 nM and an IC50 [3] of 45.7 nM.
With `C[C@H](c1ccc(F)cc1)c1nc(C(N)=O)cnc1N[C@@H]1CCN(C)C1` (single isomer, unassigned) [Example 30] the IC50 [1] was 12300 nM, the EC50 [2] was 49 nM and the IC50 [3] was 912 nM.
`C[C@H](c1ccc(F)cc1)c1nccnc1NCCN1CCCC1` (single isomer, unassigned) [Example 121] gave an IC50 [1] of 1380 nM, an EC50 [2] of 4.37 nM and an IC50 [3] of 39.8 nM.
`Cc1nnc([C@H](C)c2ccc(F)cc2)c(NCCN2CCC2)n1` (single isomer, unassigned) [Example 133] was tested, and the IC50 [1] was 30200 nM, the EC50 [2] was 42.7 nM and the IC50 [3] was 209 nM.
For `Cc1nnc([C@@H](C)c2ccc(F)cc2)c(NCCN2CCC2)n1` (single isomer, unassigned) [Example 134], the IC50 [1] was 15100 nM, the EC50 [2] was 2.19 nM and the IC50 [3] was 19.5 nM.
Work on `Cc1nnc([C@H](C)c2ccccc2)c(N[C@H]2CCN(C)C2)n1` (single isomer, unassigned) [Example 151] yielded an EC50 [2] of 316 nM.
For `c1ccc(Cc2nc3ccccc3nc2NCCN2CCCC2)cc1` [Example 1, 3-benzyl-N-(2-(pyrrolidin-1-yl)ethyl)quinoxalin-2-amine], the EC50 [2] was 166 nM.
Compound `Cc1cccc(Cc2cc3cccc(C)c3nc2NCCN2CCCC2)c1` [Example 7, 8-methyl-3-(3-methylbenzyl)-N-(2-(pyrrolidin-1-yl)ethyl)quinolin-2-amine] has an EC50 [2] of 661 nM.
Work on `C[C@H](c1ccc(F)cc1)c1nc(C(=O)NC2CCC2)cnc1NCCN1CCCC1` [Example 9, (R)-N-cyclobutyl-6-(1-(4-fluorophenyl)ethyl)-5-((2-(pyrrolidin-1-yl)ethyl)amino)pyrazine-2-carboxamide] yielded an EC50 [2] of 81.3 nM.
In the case of `Cc1nc(NCCN2CCCC2)c(C(C)c2ccc(F)cc2)nc1C(=O)O` (stereo not drawn) [Example 55], the EC50 [2] is reported as 13.8 nM.
`CO[C@H]1C[C@@H](NC(=O)c2nc(C(C)c3ccc(F)cc3)c(NCCN3CCCC3)nc2C)C1` (stereo partly drawn) [Example 56, 6-(1-(4-fluorophenyl)ethyl)-N-(cis-3-methoxycyclobutyl)-3-methyl-5-((2-(pyrrolidin-1-yl)ethyl)amino)pyrazine-2-carboxamide] was tested, and the EC50 [2] was 7.59 nM.
`Cc1nc(NCCN2CCCC2)c(C(C)c2ccc(F)cc2)nc1C(=O)NC1CCCC1` (stereo not drawn) [Example 57, N-cyclopentyl-6-(1-(4-fluorophenyl)ethyl)-3-methyl-5-((2-(pyrrolidin-1-yl)ethyl)amino)pyrazine-2-carboxamide] was tested, and the EC50 [2] was 40.7 nM.
In the case of `Cc1nc(NCCN2CCCC2)c(C(C)c2ccc(F)cc2)nc1C(=O)N[C@H]1C[C@H](F)C1` (stereo partly drawn) [Example 76, N-(trans-3-fluorocyclobutyl)-6-(1-(4-fluorophenyl)ethyl)-3-methyl-5-((2-(pyrrolidin-1-yl)ethyl)amino)pyrazine-2-carboxamide], the EC50 [2] is reported as 7.76 nM.
In the case of `Cc1nc(Cc2ccc(F)cc2)c(NC2CCN(C)CC2)nc1C` [Example 79, 3-(4-fluorobenzyl)-5,6-dimethyl-N-(1-methylpiperidin-4-yl)pyrazin-2-amine], the EC50 [2] is reported as 229 nM.
With `Cc1nc(Cc2ccc(F)cc2)c(NCCN2CCCC2)nc1C` [Example 80, 3-(4-fluorobenzyl)-5,6-dimethyl-N-(2-(pyrrolidin-1-yl)ethyl)pyrazin-2-amine] the EC50 [2] was 19.1 nM.
For `Cc1nc(Cc2ccc(F)cc2)c(N[C@@H]2CCN(C)C2)nc1C` [Example 81, (R)-3-(4-fluorobenzyl)-5,6-dimethyl-N-(1-methylpyrrolidin-3-yl)pyrazin-2-amine], the EC50 [2] was 240 nM.
In the case of `Cc1cccc(Cc2nc(C)c(C)nc2NC2CCN(C)CC2)c1` [Example 82, 5,6-dimethyl-3-(3-methylbenzyl)-N-(1-methylpiperidin-4-yl)pyrazin-2-amine], the EC50 [2] is reported as 107 nM.
With `Cc1cccc(Cc2nc(C)c(C)nc2NCCN2CCCC2)c1` [Example 83, 5,6-dimethyl-3-(3-methylbenzyl)-N-(2-(pyrrolidin-1-yl)ethyl)pyrazin-2-amine] the EC50 [2] was 7.76 nM.
`Cc1cccc(Cc2nc(C)c(C)nc2N[C@@H]2CCN(C)C2)c1` [Example 84, (R)-5,6-dimethyl-3-(3-methylbenzyl)-N-(1-methylpyrrolidin-3-yl)pyrazin-2-amine] was tested, and the EC50 [2] was 45.7 nM.
`Cc1cnc(NCCN2CCCC2)c(C(C)c2ccc(F)cc2)n1` (stereo not drawn) [Example 86, 3-(1-(4-fluorophenyl)ethyl)-5-methyl-N-(2-(pyrrolidin-1-yl)ethyl)pyrazin-2-amine] gave an EC50 [2] of 79.4 nM.
With `CCc1cnc(Cc2ccccc2)c(NCCN2CCC2)n1` [Example 89, N-(2-(azetidin-1-yl)ethyl)-3-benzyl-6-ethylpyrazin-2-amine] the EC50 [2] was 15.8 nM.
For `CC1CN(C)CCC1Nc1nc(C(F)(F)F)cnc1Cc1ccc(F)cc1` (stereo not drawn) [Example 92, N-(1,3-dimethylpiperidin-4-yl)-3-(4-fluorobenzyl)-6-(trifluoromethyl)pyrazin-2-amine], the EC50 [2] was 115 nM.
Compound `Fc1ccc(Cc2ncc(C(F)(F)F)nc2NCCN2CCCC2)cc1` [Example 93, 3-(4-fluorobenzyl)-N-(2-(pyrrolidin-1-yl)ethyl)-6-(trifluoromethyl)pyrazin-2-amine] has an EC50 [2] of 77.6 nM.
Work on `CC(c1ccc(F)cc1)c1ncc(C(F)(F)F)nc1NCCN1CCCC1` (stereo not drawn) [Example 94, 3-(1-(4-fluorophenyl)ethyl)-N-(2-(pyrrolidin-1-yl)ethyl)-6-(trifluoromethyl)pyrazin-2-amine] yielded an EC50 [2] of 151 nM.
Work on `Cc1cccc(Cc2nc(C#N)c(C)nc2N[C@@H]2CCN(C)C2)c1` [Example 97, (R)-3-methyl-6-(3-methylbenzyl)-5-((1-methylpyrrolidin-3-yl)amino)pyrazine-2-carbonitrile] yielded an EC50 [2] of 36.3 nM.
In the case of `COc1cccc(Cc2nc(C#N)c(C)nc2N[C@@H]2CCN(C)C2)c1` [Example 98, (R)-6-(3-methoxybenzyl)-3-methyl-5-((1-methylpyrrolidin-3-yl)amino)pyrazine-2-carbonitrile], the EC50 [2] is reported as 77.6 nM.
Work on `CN(C)C(=O)c1cnc(NCCN2CCCC2)c(Cc2ccc(F)cc2)c1` [Example 99, 5-(4-fluorobenzyl)-N,N-dimethyl-6-((2-(pyrrolidin-1-yl)ethyl)amino)nicotinamide] yielded an EC50 [2] of 107 nM.
Compound `NC(=O)c1cnc(NCCN2CCCC2)c(Cc2ccc(F)cc2)c1` [Example 100, 5-(4-fluorobenzyl)-6-((2-(pyrrolidin-1-yl)ethyl)amino)nicotinamide] has an EC50 [2] of 95.5 nM.
For `CNC(=O)c1cnc(NCCN2CCCC2)c(Cc2ccc(F)cc2)c1` [Example 101], the EC50 [2] was 166 nM.
`CN1CCCC1CNc1nccnc1Cc1ccc(F)cc1` (stereo not drawn) [Example 109, 3-(4-fluorobenzyl)-N-((1-methylpyrrolidin-2-yl)methyl)pyrazin-2-amine] showed an EC50 [2] of 501 nM.
Compound `CN1CCC1CNc1nccnc1Cc1ccc(F)cc1` (stereo not drawn) [Example 110, 3-(4-fluorobenzyl)-N-((1-methylazetidin-2-yl)methyl)pyrazin-2-amine] has an EC50 [2] of 2040 nM.
Compound `CN1CCCCC1CNc1nccnc1Cc1ccc(F)cc1` (stereo not drawn) [Example 112, 3-(4-fluorobenzyl)-N-((1-methylpiperidin-2-yl)methyl)pyrazin-2-amine] has an EC50 [2] of 550 nM.
`CC(c1ccc(F)cc1)c1nccnc1NCCN1CCC(F)C1` (stereo not drawn) [Example 117, 3-(1-(4-fluorophenyl)ethyl)-N-(2-(3-fluoropyrrolidin-1-yl)ethyl)pyrazin-2-amine] gave an EC50 [2] of 224 nM.
In the case of `Cc1cnc(-c2cnc(NCCN3CCCC3)c(C(C)c3ccc(F)cc3)n2)s1` (stereo not drawn) [Example 127, 3-(1-(4-fluorophenyl)ethyl)-5-(5-methylthiazol-2-yl)-N-(2-(pyrrolidin-1-yl)ethyl)pyrazin-2-amine], the EC50 [2] is reported as 224 nM.
Compound `Cc1cnc(-c2cnc(NCCN3CCCC3)c(C(C)c3ccc(F)cc3)n2)n1C` (stereo not drawn) [Example 128, 5-(1,5-dimethyl-1H-imidazol-2-yl)-3-(1-(4-fluorophenyl)ethyl)-N-(2-(pyrrolidin-1-yl)ethyl)pyrazin-2-amine] has an EC50 [2] of 81.3 nM.
`CCc1nnc(Cc2cccc(C)c2)c(NCCN2CCC2)n1` [Example 130, N-(2-(azetidin-1-yl)ethyl)-3-ethyl-6-(3-methylbenzyl)-1,2,4-triazin-5-amine] gave an EC50 [2] of 7.94 nM.
With `Cc1nnc(Cc2ccc(F)cc2)c(NCCN2CCC2)n1` [Example 135, N-(2-(azetidin-1-yl)ethyl)-6-(4-fluorobenzyl)-3-methyl-1,2,4-triazin-5-amine] the EC50 [2] was 129 nM.
`Cc1nnc(Cc2ccc(F)cc2)c(NC2CCN(C)CC2)n1` [Example 137, 6-(4-fluorobenzyl)-3-methyl-N-(1-methylpiperidin-4-yl)-1,2,4-triazin-5-amine] was tested, and the EC50 [2] was 141 nM.
